Results from patent US20090092603A1, “EARLY DIAGNOSIS AND TREATMENT OF DRUG RESISTANCE IN MUC1-POSITIVE CANCER” (priority 2007, published 2009).
Read-outs that look alike come from different tables or passages of the source.

Tested on: HERCEPTIN-resistant BTRes1 cells
Settings: drug with control Fab, compared to BT474

With `O=P1(N(CCCl)CCCl)NCCCO1` (centres unmarked) [cyclophosphamide] the “cytotoxic effect of the drug in cells that acquired HERCEPTIN® resistance” value was “acquired resistance” and the “cytotoxic effect of the drug in cells that acquired HERCEPTIN® resistance” value (listed as Cyclophosphamide) was “lost”.
